In patent US6344462B1, “Heterocyclic compounds as bradykinin antagonists” (Fujisawa Pharmaceutical Co., Ltd., priority 1995, dated 2002) one finds melting point and IC50 data, which are given here for ten compounds.

One data set concerns the target T1, Bradykinin receptor (Cavia porcellus, UniProt O70526).
T1 construct: from tissue; host or cells: guinea pig ileum, crude membrane preparation
T1 sequence (O70526 1-372): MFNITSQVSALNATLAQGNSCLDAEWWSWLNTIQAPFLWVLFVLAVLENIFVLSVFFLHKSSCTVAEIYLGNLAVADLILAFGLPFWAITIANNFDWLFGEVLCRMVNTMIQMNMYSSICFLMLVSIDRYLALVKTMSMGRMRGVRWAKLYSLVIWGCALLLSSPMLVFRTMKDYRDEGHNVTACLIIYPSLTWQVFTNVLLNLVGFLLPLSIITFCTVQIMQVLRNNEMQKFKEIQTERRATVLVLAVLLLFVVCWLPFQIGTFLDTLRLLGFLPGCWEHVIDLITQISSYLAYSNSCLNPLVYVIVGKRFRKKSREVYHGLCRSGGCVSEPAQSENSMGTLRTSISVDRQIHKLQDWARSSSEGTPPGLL
In words: 3H-Bradykinin receptor binding (crude guinea pig ileum membrane). To be noted: crude ileum membrane of male Hartly strain guinea pigs; 3H-Bradykinin 0.06 nM; room temperature, 60 minutes; read-out: Inhibition of 3H-Bradykinin binding IC50. As for the experimental part:
^3H-Bradykinin receptor binding
(a) Crude ileum membrane preparation
Male Hartly strain guinea pigs were sacrificed by decapitation. The ileum was removed and homogenized in buffer (50 mM trimethylaminoethanesulfonic acid (TES), 1 mM 1,10-phenanthroline pH 6.8). The homogenate was centrifuged (1000×g, 20 minutes) to remove tissue clumps and the supernatant was centrifuges (100,000×g, 60 minutes) to yield a pellet. The pellet was resuspended in buffer (50 mM TES, 1 mM 1,10-phenanthroline, 140 mg/l bacitracin, 1 mM dithiothreiol, 0.1% bovine serum albumin pH 6.8) and homogenized with a glass-teflon homogenizer to yield suspension which was referred to as crude membrane suspension. The obtained membrane suspension was stored at −80° C. until use.
(b) ^3H-Bradykinin binding to the membrane
The frozen crude membrane suspension was thawed. In binding assays, ^3H-Bradykinin (0.06 nM) and the test compound were incubated with 50 μl of the membrane suspension at room temperature for 60 minutes in a final volume of 250 μl. Separation of receptor-bound from free ^3H-Bradykinin is achieved by immediate filtration under vacuum and washed three times with 5 ml of ice-cold buffer (50 mM Tris-HCl pH 7.5). Non-specific binding was defined as binding in the presence of 0.1 μM Bradykinin. The radioactivity retained on rinsed filters was determined by a liquid-scintillation counter.

Where a name gives a salt, the structure may show the parent alone.

Consider `Cc1ccc2cccc(OCc3c(Cl)ccc(C(=O)N4CCNCC4)c3Cl)c2n1.Cl.Cl`, for which the melting point was in the range of 195 to 197 °C. The same measure, in the same setting: under `CNC(=O)c1ccc(C=CC(=O)NC/C=C\c2ccc(Cl)c(COc3cccc4ccc(C)nc34)c2Cl)cc1OC` (as salt: hydrochloride) [50-(1) (hydrochloride), 8-[2,6-Dichloro-3-[(Z)-3-[3-methoxy-4-(methylcarbamoyl)cinnamoylamino]-1-propenyl]benzyloxy]-2-methylquinoline] stands 222 to 225 °C.

As to `Cc1ccc2cccc(OCc3c(Cl)ccc(-n4cccc4CNC(=O)/C=C/c4ccc(/C=C/c5ccncc5)nc4)c3Cl)c2n1` [15 (trihydrochloride), 1-[2,4-Dichloro-3-(2-methylquinolin-8-yloxymethyl)phenyl]-2-[(E)-3-[6-[(E)-2-(pyridin-4-yl)vinyl]pyridin-3-yl]acryloylaminomethyl]pyrrole], the IC50 on Bradykinin receptor came to 2.6 nM. Still for that read-out and setting: under `CCOC(=O)c1ccc(/C=C/C(=O)NCc2cccn2-c2ccc(Cl)c(COc3cccc4ccc(C)nc34)c2Cl)cn1` [16-(1), 1-[2,4-Dichloro-3-(2-methylquinolin-8-yloxymethyl)phenyl]-2-[(E)-3-(6-ethoxycarbonylpyridin-3-yl)acryloylaminomethyl]pyrrole] stands 3.3 nM. For `Cc1nc2c(OCc3c(Cl)ccc(-n4cccc4CNC(=O)/C=C/c4ccc(/C=C/c5ccncc5)nc4)c3Cl)cccn2c1Br` [23-(3) (trihydrochloride), 1-(3-(3-bromo-2-methylimidazo[1,2-a]pyridin-8-yloxymethyl)-2,4-dichlorophenyl]-2-[(E)-3-[6-[(E)-2-(pyridin-4-yl)vinyl]pyridin-3-yl]acryloylaminomethyl]pyrrole], the IC50 at Bradykinin receptor was found to be 4.3 nM. Consider `CNC(=O)c1ccc(/C=C/C(=O)NCc2cccn2-c2ccc(Cl)c(COc3cccc4c(-n5ccnc5)cc(C)nc34)c2Cl)cc1` [33 (dihydrochloride)], for which the IC50 on Bradykinin receptor worked out at 3.2 nM. `CNC(=O)c1ccc(/C=C/C(=O)NCc2ccccc2-c2ccc(C)c(COc3cccc4ccc(C)nc34)c2C)cc1` [40-(6)]: the IC50 on Bradykinin receptor amounted to 2.3 nM. The same measure, in the same setting: under `CNC(=O)c1ccc(C=CC(=O)NCc2sccc2-c2ccc(C)c(COc3cccc4ccc(C)nc34)c2C)cc1` [45-(6) (hydrochloride), 3-[2,4-Dimethyl-3-(2-methylquinolin-8-yloxymethyl)-phenyl]-2-[4-(methylcarbamoyl)-cinnamoylaminomethyl]thiophene] stands 2.8 nM; under `CNC(=O)c1ccc(C=CC(=O)NC/C=C\c2ccc(Cl)c(COc3cccc4ccc(C)nc34)c2Cl)cc1OC` [50-(1) (hydrochloride), 8-[2,6-Dichloro-3-[(Z)-3-[3-methoxy-4-(methylcarbamoyl)cinnamoylamino]-1-propenyl]benzyloxy]-2-methylquinoline], 7.4 nM.

For the compound `COc1nc2c(OCc3c(Cl)ccc(-n4cccc4CNC(=O)/C=C/c4ccc(NC(C)=O)nc4)c3Cl)cccc2n1C` [Example 21, 2-[(E)-3-(6-acetamidopyridin-3-yl)acryloylaminomethyl]-1-[2,4-dichloro-3-(2-methoxy-1-methyl-1H-benzimidazol-4-yloxymethyl)phenyl]pyrrole], the melting point was 233 to 240 °C.
